Source: paper PMC4596572, “Ligand Discovery for the Alanine-Serine-Cysteine Transporter (ASCT2, SLC1A5) from Homology Modeling and Virtual Screening” (PLoS Computational Biology, 2015)
Where “and” joins values, the source holds several entries; their conditions need not be identical. Identical values can stand only once.

What was measured:
rat ASCT2 = target: T1, rat ASCT2 (Rattus norvegicus, UniProt D3ZJ25); test: Whole-cell patch-clamp recording of ASCT2-associated anion current in transfected HEK293 cells; format: cell-based; conditions: for Anion current response / ligand character: whole-cell current, result in words; for Km: apparent Km for the active compounds from anion current dose response, called Ki in text for the inhibitors L-DOPS and γ-FBP; for Imax, maximum currents relative to 1 mM alanine: whole-cell anion current, membrane potential 0 mV, internal 130 mM NaSCN and 10 mM alanine, negative = outward current (inhibitor); for Anion current activity: at the maximum concentration tested, 500 μM
T1 construct: The coding region of the cDNA was subcloned into the EcoRI site of the pBK-CMV vector; expressed in transfected cells; host or cells: HEK293 (human embryonic kidney), transient transfection, pBK-CMV vector
T1 sequence (D3ZJ25 1-555): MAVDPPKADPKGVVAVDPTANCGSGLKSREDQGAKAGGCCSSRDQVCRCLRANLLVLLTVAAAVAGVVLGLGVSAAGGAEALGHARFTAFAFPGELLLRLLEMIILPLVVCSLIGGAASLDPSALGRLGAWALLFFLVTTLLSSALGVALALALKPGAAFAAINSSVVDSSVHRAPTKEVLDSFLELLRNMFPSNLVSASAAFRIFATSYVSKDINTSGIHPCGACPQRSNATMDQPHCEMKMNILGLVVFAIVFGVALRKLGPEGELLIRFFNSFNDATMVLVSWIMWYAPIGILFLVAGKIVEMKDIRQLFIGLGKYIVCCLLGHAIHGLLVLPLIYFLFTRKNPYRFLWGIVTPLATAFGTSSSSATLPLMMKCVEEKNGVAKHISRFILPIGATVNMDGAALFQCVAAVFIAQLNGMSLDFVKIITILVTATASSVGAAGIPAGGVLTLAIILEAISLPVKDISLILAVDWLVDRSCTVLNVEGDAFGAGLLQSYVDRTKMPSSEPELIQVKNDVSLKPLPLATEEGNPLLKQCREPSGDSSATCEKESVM
Text: (§1) We used transporter-mediated anion current as a measure of transport/inhibition activity […] We have previously shown that anion current is a measure of transport activity, due to the kinetic coupling of transport and anion flux, and this fact is also well established for the homologous glutamate transporters, which have a much more rigorously determined pharmacology. Anion current is activated when the transporter visits certain states in the transport cycle, such as the fully Na^+/substrate occupied state (substrate-induced anion conductance), or the Na^+-bound state (leak conductance). Thus, transported substrates induce anion current and non-transported inhibitors block the leak anion current. […] Functional characterization by patch clamping is a powerful approach when combined with virtual screening that prioritizes molecules from large libraries, but precludes screening of large amounts of compounds due to its labor-intensive nature.
cDNA coding for rat ASCT2 was kindly provided by S. Bröer. The coding region of the cDNA was subcloned into the EcoRI site of the pBK-CMV vector (Stratagene). The cDNA construct was used to transiently transfect human embryonic kidney cells (HEK293, ATCC No. CGL 1573) with leptrime reagent (Polyplus, Ilkrich, France). Transfection was performed as detailed in the supplier’s instructions. Electrophysiological recordings were performed 24–48 h after transfection.
ASCT2-associated whole-cell currents were recorded with an Adams & List EPC7 amplifier (HEKA, Lambrecht, Germany) using voltage-clamp conditions. Open-tip electrode resistances were 2–3 MΩ and the series resistance (R S) was 5–8 MΩ. R S was not compensated in the recordings, as compensation had no effect on the magnitude of the observed currents. The extracellular bath solution contained (in mM): 140 NaMES, 2 MgGluconate2, 2 CaGluconate2, and 10 HEPES (MES = methanesulfonic acid, pH 7.4 / NaOH). The pipette solution contained (in mM): 130 NaSCN, 2 MgCl2, 10 EGTA, 10 HEPES, and 10 L-alanine/cysteine (pH 7.3 / NaOH). Using this intracellular solution, the transporters operate in the Na^+/alanine exchange mode. Here, external alanine is exchanged with internal alanine in the absence of net transport. The exchange mode is associated with the activation of an uncoupled anion current, which was used as an indirect measure of transport activity. The currents were low pass filtered at 3 kHz (EPC7 built-in filter) and digitized with a digitizer board (Digidata 1200, Axon Instruments, Foster City, CA, USA) at a sampling rate of 10–50 kHz (controlled by software, Axon PClamp7). All experiments were performed at room temperature. Rapid solution exchange was essentially performed as described previously. Briefly, substrates and inhibitors were applied to the ASCT2-expressing HEK293 cells with a quartz tube (350 μm tube diameter) positioned at a distance of ≈0.5 mm to the cell. The linear flow rate of the solutions emerging from the opening of the tube was approximately 5–10 cm/s.

ASCT2 = target: T2, ASCT2 (Rattus norvegicus, UniProt D3ZJ25); test: Voltage-jump exchange-mediated transient transport current in ASCT2-expressing cells; format: cell-based; conditions: benzylserine 5 mM (S2 Fig)
T2 construct: expressed in transfected cells
T2 sequence (D3ZJ25 1-555): T1 sequence (D3ZJ25 1-555)
Text: as §1
Supplementary file pcbi.1004477.s002.pdf: S2 Fig Exchange current is mediated by a transported substrate, but not by a non-transported inhibitor. Voltage jumps induce transport-mediated exchange current (due to voltage-dependent re-equilibration of the translocation equilibrium) in the presence of the transported substrate alanine (1 mM, black trace), but not in the presence of the non-transported inhibitor benzylserine (5 mM, red trace). […]

[1] = target: T3, ASCT2 mediated glutamine uptake in C8161 melanoma cells (Homo sapiens, UniProt Q15758); set-up: method as in PMID 24531984; conditions: cited from earlier work
T3 construct: C8161 cells (1 × 10^5/well) were incubated with [^3H]-L-glutamine; endogenous in cells; host or cells: C8161 human melanoma cell line
T3 sequence (Q15758 1-541): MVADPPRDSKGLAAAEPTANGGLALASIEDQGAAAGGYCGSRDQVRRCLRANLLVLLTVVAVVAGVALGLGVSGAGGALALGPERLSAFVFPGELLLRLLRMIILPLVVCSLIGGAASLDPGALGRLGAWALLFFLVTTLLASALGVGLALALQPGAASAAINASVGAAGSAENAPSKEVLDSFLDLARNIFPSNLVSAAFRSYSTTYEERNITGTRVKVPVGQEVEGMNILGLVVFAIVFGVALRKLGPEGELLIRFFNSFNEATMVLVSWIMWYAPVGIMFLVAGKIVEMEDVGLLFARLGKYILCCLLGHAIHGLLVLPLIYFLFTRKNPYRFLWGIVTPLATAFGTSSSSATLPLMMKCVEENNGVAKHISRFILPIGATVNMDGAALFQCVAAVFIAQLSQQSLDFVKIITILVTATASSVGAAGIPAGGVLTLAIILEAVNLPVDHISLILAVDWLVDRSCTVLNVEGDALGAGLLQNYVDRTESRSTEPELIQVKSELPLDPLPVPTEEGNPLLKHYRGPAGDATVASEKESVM

Solubility in water = format: physicochemical; conditions: required 5% DMSO at concentrations higher than 1 mM

| Compound | Km (rat ASCT2) [mM] | Imax, maximum currents relative to 1 mM alanine (rat ASCT2) | Anion current response / ligand character (rat ASCT2) | also measured |
| --- | --- | --- | --- | --- |
| O=C(O)C1CC(OCc2ccccc2)CN1 (stereo not shown) [4-hydroxyproline-benzylether] |  |  | not significantly different from zero |  |
| N[C@@H](COCc1ccccc1)C(=O)O [benzylserine] |  |  |  | Exchange-mediated transient transport currents upon voltage jumps (ASCT2): unable to elicit exchange-mediated transient transport currents; IC50 [1]: 5.3 mM |
| O=C(O)[C@H]1NCC[C@H]1O [cis-3-hydroxyproline] | 0.019 ± 0.01 | 1.39 and 1.39 ± 0.1 | activated inwardly-directed anion currents |  |
| O=C(O)[C@H](Cc1c[nH]c2ccccc12)NCCc1ccccc1 [N-(2-phenylethyl)tryptophan] |  |  |  | Anion current activity (rat ASCT2): inactive; Solubility in water (Solubility in water): poorly soluble in water |
| O=C(O)[C@@H]1CCCN1 [proline, reference compound] |  |  | not an ASCT2 ligand |  |
| Cc1ccc2[nH]c(C(=O)O)c(CN(C)Cc3ncc[nH]3)c2c1 [3-{[(1H-imidazol-2-ylmethyl)(methyl)amino]methyl}-5-methyl-1H-indole-2-carboxylic acid] |  |  |  | Anion current activity (rat ASCT2): inactive; Solubility in water (Solubility in water): poorly soluble in water |
| N[C@H](C(=O)O)[C@H](O)c1ccc(O)c(O)c1 [L-DOPS, reference compound] | 1.95 ± 0.9 | -0.03 ± 0.01 | weak inhibitor | Ki (rat ASCT2; apparent affinity, inhibition of leak anion conductance, read-out: Ki): ~2 mM; Inhibition of alanine-induced responses (rat ASCT2; at concentrations up to 5 mM): unable to significantly inhibit alanine-induced responses |
| CC(C)(N)C(=O)O [AIB] |  |  |  | Anion current response (rat ASCT2; at concentrations up to 5 mM): did not elicit any significant response |
| O=C(O)C1NCCS1 (stereo not shown) [thiazolidine-2-carboxylate] |  |  |  | Anion current response (rat ASCT2; at concentrations up to 5 mM): did not elicit any significant response |

More lines, main results first:

| Km (rat ASCT2) [mM] | Imax, maximum currents relative to 1 mM alanine (rat ASCT2) | Compound | Anion current response / ligand character (rat ASCT2) | also measured |
| --- | --- | --- | --- | --- |
| 1.37 ± 0.68 | 0.68 ± 0.08 | CC(C)(S)[C@@H](N)C(=O)O [Penicillamine, reference compound] | activated inwardly-directed anion currents |  |
| 5.1 ± 1.5 | 0.45 ± 0.03 | N[C@H](C(=O)O)[C@@H]1CC(Cl)=NO1 [Acivicin, reference compound] |  |  |
| 0.41 ± 0.02 | 1 | C[C@H](N)C(=O)O [Alanine] |  |  |
